This note sets out measurements from PubChem BioAssay (NCI).

Holding throughout (assay): NCI-60 cell line screen, 48 h
For test [1], the system named is OVCAR-4 ovarian.
For test [2], the system named is M14 melanoma.
Test [3] relates to SK-MEL-28 melanoma.
The subject of test [4] is IGROV1 ovarian.
Test [5] concerns EKVX NSCLC.
The subject of test [6] is NCI-H460 lung.
Test [7] concerns UO-31 renal.
In test [8] the test system is A549 NSCLC.
Test [9] deals with SN12C renal.
The test system of test [10] is MOLT-4 leukemia.

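How tested: cells in 96-well plates exposed to compound for 48 hours at five concentrations. GI50: concentration for 50% inhibition of growth. TGI denotes the concentration required for complete inhibition of growth.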

In the case of `CC1(C)CC2C(=O)c3ccccc3NC2c2ccccc21` (centres undefined), the TGI in [1], in test [2], in [3], in [4], in test [5] and in test [6] was over 100 µM throughout. Also, the TGI is over 67.2 µM in test [7], over 100 µM in test [8] and over 100 µM in test [9].
Regarding `CCOC(=O)c1cc2c3c(c(O)c(OC)c2s1)N(C(=O)c1cc2c4c(c(O)c(OC)c2s1)N(C(C)=O)CC4)CC3`, the TGI in [1], in test [2], in test [3], in test [4], in test [5] and in [6] was over 100 µM in each case. Further, the TGI in [7], in test [8] and in test [9] was over 100 µM each time.
For the compound `Cn1c2c(c3ccccc31)CCN(CCN1CCN(c3cccc(Cl)c3)CC1)C2=O`, the TGI in test [10], in test [2], in test [3], in test [4], in [5] and in test [7] was over 100 µM each time. Besides, the TGI in test [8] and in [9] was over 100 µM in each case.
Regarding `Cn1cc(C2=C(c3cn(C4CCN(Cc5ccccn5)CC4)c4ccccc34)C(=O)NC2=O)c2ccccc21`, the GI50 is 3.52 µM in test [10]; 4.61 µM in test [2]; 6.07 µM in test [3]; 9.7 µM in test [4]; 4.92 µM in test [6]; 4.92 µM in test [8]. Besides, in test [9], the GI50 was over 100 µM. The TGI in [10], in test [2], in test [3], in test [4], in [6] and in test [8] was over 100 µM throughout. Also, in test [9], the TGI was over 100 µM.
Consider `CCCCn1c(-c2ccc(C(=O)O/N=C(\N)c3ccc4c(c3)OCO4)cc2)nc(-c2ccccc2)c1-c1ccccc1`, for which the GI50 in test [1] was 3.5 µM; in test [2] it was 2.85 µM; in test [3], 5.69 µM; in test [4] it was 0.465 µM; in test [5], 2.07 µM; in test [6], 2.29 µM. Besides, the GI50 in [7] was 0.229 µM; in test [8], 1.92 µM; in test [9], 1.8 µM. Moreover, the TGI in [1] is over 100 µM; in test [2], 17.5 µM; in test [3], over 100 µM; in test [4], 1.8 µM; in [5] it was 7.74 µM; in test [6] it was 5.62 µM. In addition, the TGI in test [7] is 0.562 µM; in test [8] it was 5.22 µM; in [9], 3.7 µM.
As for `C[C@H]1CCCC(O)C(O)[C@@H]2C[C@H](O[Si](C)(C)C(C)(C)C)C[C@H]2[C@H](O[Si](C)(C)C(C)(C)C)C(O)C(O)C(=O)O1` (some centres undefined), the GI50 in test [10] is 66 µM; in test [2] it was 39.1 µM; in [3], 47.9 µM; in [4], 16.2 µM; in [5], 26.1 µM; in test [6], 11 µM. The GI50 in [7] was 42.2 µM; in [8] it was 31.5 µM; in test [9], 34.6 µM. The TGI in test [10] is over 100 µM; in test [2], over 100 µM; in [3], over 100 µM; in [4] it was 43 µM; in test [5], 72.3 µM; in test [6], 23.9 µM. Moreover, the TGI in test [7], in [8] and in [9] was over 100 µM each time.
Consider `Cc1ccccc1NC(=O)C1C(=O)N(c2ccccc2C)C(=O)/C1=N\NC(N)=S` (centres undefined), for which the TGI in [10], in [2], in test [3], in test [4], in test [5] and in test [7] was over 100 µM each time. Further, the TGI in test [8] and in test [9] was over 100 µM in each case.
`CCOC(=O)NC(=O)c1cn(CCN2CCN(C(=O)CCCCCCCCCCC(=O)N3CCN(CCn4cc(C(=O)NC(=O)OCC)c(=O)[nH]c4=O)CC3)CC2)c(=O)[nH]c1=O`: the TGI in [1], in test [10], in test [2], in test [3], in [4] and in [7] was over 100 µM in each case. Besides, the TGI in test [8] and in [9] was over 100 µM each time.
Regarding `COc1ccc(C(=O)c2ccc([As]=O)cc2)cc1` (centres undefined), the GI50 was 0.0454 µM in test [1]; 0.0389 µM in [10]; 0.0629 µM in test [2]; 0.0363 µM in [4]; 0.132 µM in test [5]; 0.172 µM in [6]. Also, the GI50 is 0.0696 µM in test [7], 0.158 µM in test [8] and 0.0418 µM in test [9]. In addition, the TGI in test [1] is 0.182 µM; in test [10], 0.265 µM; in test [2] it was 0.218 µM; in [4], 0.158 µM; in [5], 0.293 µM; in [6], 0.416 µM. The TGI in [7] is 0.204 µM; in test [8], 0.348 µM; in test [9], 0.199 µM.
For `CSc1nnc(COc2ccc(Cl)cc2)o1`, the TGI in test [1], in test [2], in [3], in test [4], in test [5] and in test [6] was over 100 µM each time. The TGI in [7], in test [8] and in [9] was over 100 µM each time.
On to `CC(=O)N1CCC2(c3ccccc3N(C(C)=O)C2c2ccc(O)cc2)C1C(=O)O` (centres undefined), for which the TGI in test [10], in test [2], in [3], in test [5], in [7] and in test [8] was over 100 µM throughout. Moreover, in [9], the TGI was over 100 µM.
For `CCNC(=O)COc1ccc(Cl)cc1Cl`, the TGI in test [10], in test [2], in test [3], in test [4], in [5] and in test [6] was over 100 µM each time. For the same compound, the TGI in [7], in test [8] and in test [9] was over 100 µM throughout.
Consider `O=C(N/N=C/c1cccc(F)c1)c1ccncc1`, for which the TGI in [10], in test [2], in [3], in test [6], in test [8] and in test [9] was over 100 µM throughout.
Take `COc1ccc(C(=O)NCCN(C)C)c2nc3ccccc3nc12`: the TGI in [1] was 16.8 µM; in [10] it was 7.3 µM; in test [2], over 34.5 µM; in [3], 16.8 µM; in test [5] it was 33.2 µM; in [7], over 52 µM. The TGI was over 100 µM in test [8] and 80.1 µM in test [9].
In the case of `NC(=S)NN/C=C(\C=Nc1ccccc1)[N+](=O)[O-]`, the TGI in [1], in test [2], in test [3], in test [4], in test [5] and in test [8] was over 100 µM each time. Further, in test [9], the TGI is over 100 µM.
With `CCCCCCCCCCCCCCCC[N+]1(C)CCOCC1`, the GI50 in test [10] was 1.6 µM; in test [2], 1.32 µM; in test [3], 2.42 µM; in test [5] it was 3.42 µM; in test [6] it was 1.96 µM; in [7], 13.4 µM. In addition, the GI50 in test [8] was 2.79 µM; in test [9], 2.6 µM. In addition, the TGI in [10] amounted to 3.69 µM; in test [2], 2.98 µM; in test [3], 7.69 µM; in test [5], 20.1 µM; in test [6], 4.73 µM; in [7], 31.6 µM. Moreover, the TGI in test [8] was found to be 12.2 µM; in [9], 8.92 µM.
As for `N/N=C1\C(=O)N(CCc2ccccc2)C(=O)C1C(=O)NCCc1ccccc1` (centres undefined), the TGI in [10], in test [2], in test [3], in test [4], in [5] and in test [7] was over 100 µM throughout. For the same compound, the TGI in [8] and in test [9] was over 100 µM each time.
For `O=C(/C=C/c1ccccc1)CC(=O)CCC(=O)Nc1ccc(Cl)cc1`, the TGI in [1], in [10], in test [2], in test [4], in [5] and in test [6] was over 100 µM in each case. The TGI in test [7], in [8] and in test [9] was over 100 µM each time.
As for `O=S(=O)(CCCl)c1ccc(Cl)cc1`, the GI50 in [1] is 2.22 µM; in [10], 3 µM; in test [2] it was 5.18 µM; in [3], 2.38 µM; in test [4], 2.41 µM; in test [6], 6.4 µM. Further, the figures for the GI50 in [7], in test [8] and in test [9] were 2.45 µM, 13 µM and 4.46 µM, respectively. Also, the TGI in test [1] is 10.8 µM; in test [10], over 100 µM; in [2] it was 22.2 µM; in test [3] it was 10.8 µM; in test [4], 7.44 µM; in test [6] it was 24 µM. Also, the results for the TGI in test [7], in test [8] and in [9] were 8.16 µM, 45.6 µM and 16.9 µM, respectively.
As to `O=C(Nc1ccc(Cl)c(Cl)c1)NS(=O)(=O)c1cnccc1Oc1ccc(F)cc1`, the GI50 is 3.26 µM in [1]; 2.68 µM in test [10]; 5.24 µM in test [2]; 2.69 µM in test [4]; 2.68 µM in [5]; 3.09 µM in test [6]. For the same compound, the GI50 in [7] was 2.62 µM; in [8] it was 9.92 µM; in test [9], 3.38 µM. The TGI is over 100 µM in [1]; 8.58 µM in test [10]; over 100 µM in [2]; 8.59 µM in [4]; 44.4 µM in test [5]; 20.1 µM in [6]. Also, the results for the TGI in test [7], in [8] and in [9] were 9.51 µM, 52 µM and 15.4 µM, respectively.
As for `Cc1c2ccccc2cc2ccc3oc([N+](=O)[O-])cc3c12`, the TGI in [1], in test [10], in [2], in test [4], in test [5] and in [6] was over 100 µM in each case. The TGI in test [7], in test [8] and in [9] was over 100 µM throughout.
For the compound `Cc1c(C(=O)O)oc2ccc([N+](=O)[O-])cc12`, the TGI in [1], in test [2], in test [3], in test [4], in test [5] and in test [6] was over 100 µM in each case. In addition, the TGI in [7], in test [8] and in test [9] was over 100 µM throughout.
For `COc1cc2c(cc1OC)C(C(=O)c1cccc(OC)c1OC)C(=O)N(C)CC2` (centres undefined), the TGI in test [1], in test [10], in [2], in [3], in test [4] and in test [6] was over 100 µM each time. The TGI in test [7], in test [8] and in [9] was over 100 µM throughout.
For `Oc1ccccc1-c1nn(CNc2ccccc2Cl)c(=S)o1`, the GI50 was over 100 µM in test [2]; over 100 µM in test [4]; over 100 µM in [5]; 37.4 µM in [6]; over 100 µM in test [7]; over 100 µM in [8]. Also, the GI50 in test [9] is 78.2 µM. Besides, the TGI in test [2], in test [4], in test [5], in test [6], in test [7] and in test [8] was over 100 µM each time. This compound gave a TGI in test [9] of over 100 µM.
Regarding `C[N+](C)(C)CC1CCCCC1O` (centres undefined), the TGI in [1], in [10], in test [2], in test [3], in test [4] and in test [6] was over 100 µM throughout. Further, the TGI in [7] and in test [9] was over 100 µM in each case.
